Test results taken from US20180201662A1, “PEPTIDE FOR PROMOTING CELL MIGRATION AND/OR SKIN WOUND HEALING, PHARMACEUTICAL COMPOSITION CONTAINING THE SAME, AND APPLICATION THEREOF” (Industrial Technology Research Institute, priority 2016, published 2018).
Where no end group is shown, it is not given here. [ ]: non-standard residue; d: D form.

What was measured:
Assay type in all cases: cell-based
[1] = test system: human monocyte-derived macrophages; assay: TNF-α secretion of monocyte-derived macrophages stimulated with peptides (ELISA)
Procedure: (§1) Peripheral blood mononuclear cells were isolated from leukocytes in the blood of healthy donors by Ficoll Hypaque.
(§2) Monocytes were isolated from the peripheral blood mononuclear cells by using Human MACS CD14 Isolation Kit.
(§3) Monocytes (2×10^6 cells/mL) were seeded in a 6-well plate containing 2 mL fresh complete medium and cultured at 5% CO2, 37° C. for 6 days. The medium was changed every 2-3 days to make the monocytes differentiate to macrophages.
2. Detection of TNF-α Secretion of Monocyte-Derived Macrophages Stimulated with Peptides
Peptides were added to respective wells of a culturing plate to stimulate macrophages for 48 hours. Macrophages not stimulated were used as a blank group.
2.2.1 TNF-α secreted from macrophages to the supernatant of the culture was detected by a human TNF-α kit.
2.2.2 Absorbance of the supernatant of the culture at 450-540 nm was detected by a SpectraMax M5 microplate reader. Detection limitation of this ELISA kit to TNF-α is about […].

[2] = test system: human monocyte-derived macrophages; assay: MCP-1 secretion of human monocyte-derived macrophages stimulated with peptides (ELISA)
Procedure: as §1, §2, §3
(§4) 3. Detections of MCP-1 Secretion of Human Umbilical Vein Endothelial Cells HUVECs and Human Monocyte-Derived Macrophages Stimulated with Peptides
(§5) Peptides were added to respective wells of a culturing plate to stimulate HUVECs for 24-48 hours, or to stimulate macrophages for 48 hours. In the experiment for macrophages, macrophages not stimulated were used as a blank group.
(§6) 3.2.1 MCP-1 respectively secreted from HUVECs and macrophages to the supernatant of the culture was detected by a […].
(§7) 3.2.2 Absorbance of the supernatant of the culture at 450-540 nm was detected by a SpectraMax M5 microplate reader. Detection limitation of this ELISA kit to MCP-1 is about […].

[3] = test system: human keratinocyte cell line HaCaT; assay: MMP9 secretion of human keratinocyte cell line HaCaT stimulated with peptides (ELISA); conditions: 48 hours; peptides 1.5, 1 and 0.5 mg/ml vs IL-6 1000 and 100 ng/ml; FIG. 9
Procedure: 5. Detection of MMP9 Secretion of Human Keratinocyte Cell Line HaCaT Stimulated with Peptides
Peptides were added to respective wells of a culturing plate to stimulate HaCaT cells for 48 hours. HaCaT cells not stimulated were used as a blank group.
5.2.1 MMP9 secreted from HaCaT cells to the supernatant of the culture was detected by a MMP9 kit (R&D systems, Human MMP-9 DuoSet ELISA (DY911)).
5.2.2 Absorbance of the supernatant of the culture at 450-540 nm was detected by a SpectraMax M5 microplate reader. Detection limitation of this ELISA kit to MMP9 is about […].

[4] = test system: human umbilical vein endothelial cells (HUVEC); assay: MCP-1 secretion of human umbilical vein endothelial cells HUVECs stimulated with peptides (ELISA); conditions: Peptide 6 660 and 165 μg/ml, IL-6 200 and 50 ng/ml, FIG. 2A
Procedure: as §4, §5, §6, §7

[5] = test system: human keratinocyte cell line HaCaT; assay: Cell migration analysis of human keratinocyte cell line HaCaT stimulated with peptides (scratch); conditions: compared to control group; concentrations of 300 μg/ml, 660 μg/ml and 1000 μg/ml; 18 hour; FIG. 3A, 3B
Procedure: 4. Cell Migration Analysis of Human Keratinocyte Cell Line HaCaT Stimulated with Peptides
4.1 Each well of a 12-well culturing plate was coated with 100 μg/ml of collagen (in 0.02N acetic acid) (0.5 ml/well).
4.2 The culturing plate was placed at 37° C. for 1 hour, and then was washed with Dulbecco's phosphate buffered saline (DPBS) one time.
4.3 HaCaT cells were seeded in the culturing plate with DMEM containing serum (5×10^5 cells/well), and the final serum concentration for each well was 10%.
4.4 The cells were cultured in a condition of 5% CO2, 37° C.
4.5 The medium was replaced with DMEM containing 0.6% serum for serum starvation and culture the cells overnight.
4.6 The bottom of the well of the culturing plate was scraped with 1000 μl tips, and the culturing plate was washed with Dulbecco's phosphate buffered saline twice.
4.7 The cells and peptides were cultured in DMEM containing 0.6% serum. HaCaT cells not stimulated with peptides or growth factors were used as a control group.
4.8 Photographs were taken at 0 hour and 18 hour.
4.9. The photographs were analyzed by Celllmage Comp software, and the migration distances for cells were calculated.

[6] = macrophages of Donor 4, 48 hours, peptides up to 250 μg/ml, IL-6 100 ng/ml and 50 ng/ml, FIG. 7
[7] = macrophages of Donor 4, 48 hours, peptides 50 ng/ml-250 μg/ml vs IL-6 100 and 50 ng/ml, FIG. 8
[8] = macrophages of Donor 5, 48 hours, peptides 50 μg/ml, IL-6 200 ng/ml, FIG. 12
[9] = macrophages of Donors 1-3, 48 hours, Peptide 6 up to 1000 μg/ml, IL-6 50 ng/ml, FIG. 1A-1C
[10] = macrophages of Donor 5, 48 hours, peptides 50 μg/ml vs IL-6 200 ng/ml, FIG. 13
[11] = macrophages of Donors 1-3, 48 hours, Peptide 6 125-1000 μg/ml, IL-6 5-200 ng/ml, FIG. 2B-2D

Substance	TNF-α secretion of macrophages [1, 6]	MCP-1 secretion of macrophages [2, 7]	MMP9 secretion of HaCaT [3]	TNF-α secretion of macrophages [1, 8]	TNF-α secretion of macrophages [1, 9]	MCP-1 secretion of HUVECs [4]	MCP-1 secretion of macrophages [2, 10]	MCP-1 secretion of macrophages [2, 11]	cell migration of HaCaT [5]
ITRI-2: isoform of Peptide 6 (SEQ ID NO. 6) with one D-form amino acid: valine at position 13 (NRFESSEEQARA[dV]QMSTKVLIQFLQKKA)	a low level of TNF-α	a higher level of MCP-1 secretion than IL-6	a higher level of MMP9 secretion than IL-6						
Peptide 6: IL-6-derived peptide, sequence SEQ ID NO. 6, corresponds to amino acids of positions 102 to 129 of mature form IL-6 (NRFESSEEQARAVQMSTKVLIQFLQKKA)	a low level of TNF-α	a higher level of MCP-1 secretion than IL-6	a higher level of MMP9 secretion than IL-6	almost do not induce TNF-α secretion	does not induce macrophages to secrete TNF-α	a great quantity of MCP-1	a higher level of MCP-1 secretion than IL-6	a great quantity of MCP-1	can promote cell migration
6M14: short form peptide of Peptide 6, sequence SEQ ID NO. 3 (EQARAVQMSTKVLI) [Peptide 6M14]				almost do not induce TNF-α secretion			a higher level of MCP-1 secretion than IL-6		
IL-6: interleukin; mature form has the sequence of SEQ ID NO. 1; comparator	a great quantity of TNF-α			a great quantity of TNF-α	can induce macrophages to secrete TNF-α	a lower quantity of MCP-1		a lower quantity of MCP-1	
